Test results reported in patent publication US9969752B2, “Inhibitors of HIF prolyl hydroxylase” (MERCK SHARP & DOHME CORP., priority 2014, dated 2018).

The compounds below were run against T1, Human HIF-PHD2 (Homo sapiens, UniProt Q9GZT9) (assay: Inhibition of the hydroxylation of a HIF peptide by PHD2 (time resolved fluorescence, 384-well)). Details: FLAG-tagged full length PHD2; 0.2 μM 2-oxoglutarate, 0.5 μM HIF-1α peptide; 45 minutes at room temperature; read-out: Human HIF-PHD2 IC50.
T1 construct: FLAG-tagged full length PHD2 expressed in and purified from baculovirus-infected Sf9 cells; FLAG; made in house; host or cells: baculovirus-infected Sf9 cells
T1 sequence (Q9GZT9 whole entry): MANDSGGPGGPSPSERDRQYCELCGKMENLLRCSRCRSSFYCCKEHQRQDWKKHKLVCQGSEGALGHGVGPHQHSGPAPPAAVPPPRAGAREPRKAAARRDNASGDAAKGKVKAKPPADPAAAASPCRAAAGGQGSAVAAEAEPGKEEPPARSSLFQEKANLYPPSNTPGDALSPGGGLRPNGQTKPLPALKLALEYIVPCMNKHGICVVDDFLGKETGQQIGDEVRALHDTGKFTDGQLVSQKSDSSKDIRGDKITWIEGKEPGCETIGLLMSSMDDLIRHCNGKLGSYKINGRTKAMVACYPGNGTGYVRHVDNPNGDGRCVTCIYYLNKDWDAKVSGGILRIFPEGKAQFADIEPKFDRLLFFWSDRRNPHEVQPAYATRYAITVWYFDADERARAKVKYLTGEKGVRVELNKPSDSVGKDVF
Type: biochemical

SMILES	IC50 [µM]
NC(=O)c1ccc(-c2ccc(C3COc4cccc5c(O)c(C(=O)NCC(=O)O)c(=O)n3c45)cc2)cc1 (centres unmarked) [Example 141, N-{[3-(4′-Carbamoylbiphenyl-4-yl)-7-hydroxy-5-oxo-2,3-dihydro-5H-[1,4]oxazino[2,3,4-ij]quinolin-6-yl]carbonyl}glycine]	0.0061
O=C(O)CNC(=O)c1c(O)c2ccc(-c3cccnc3)c3c2n(c1=O)CCO3 [Example 153, N-[(7-Hydroxy-5-oxo-10-pyridin-3-yl-2,3-dihydro-5H-[1,4]oxazino[2,3,4-ij]quinolin-6-yl)carbonyl]glycine]	0.0036
O=C(O)CNC(=O)c1c(O)c2cccc3c2n(c1=O)C(c1ccc(Cl)cc1)CO3 (centres unmarked) [Example 157, 2-(7-Hydroxy-5-oxo-3-(4-chlorophenyl)-3,5-dihydro-2H-[1,4]oxazino[2,3,4-ij]quinoline-6-carboxamido)acetic acid]	0.025

Same assay, conditions: FLAG-tagged full length PHD2; 0.2 μM 2-oxoglutarate, 0.5 μM HIF-1α peptide; 45 minutes at room temperature; read-out: MS m/z (M + 1)+ and human HIF-PHD2 IC50

SMILES	IC50 [µM]
O=C(O)CNC(=O)c1c(O)c2ccc(-c3ccn[nH]3)c3c2n(c1=O)C(c1ccc(C(F)(F)F)cc1)CO3 (centres unmarked) [Example 140, 2-(7-hydroxy-5-oxo-10-(1H-pyrazol-5-yl)-3-(4-(trifluoromethyl)phenyl)-3,5-dihydro-2H-[1,4]oxazino[2,3,4-ij]quinoline-6-carboxamido)acetic acid]	0.011
O=C(O)CNC(=O)c1c(O)c2cccc3c2n(c1=O)C(c1ccc(-c2cccc(Cl)c2)cc1)CO3 (centres unmarked) [Example 142, N-{[3-(3′-chlorobiphenyl-4-yl)-7-hydroxy-5-oxo-2,3-dihydro-5H-[1,4]oxazino[2,3,4-ij]quinolin-6-yl]carbonyl}glycine]	0.019
O=C(O)CNC(=O)c1c(O)c2cccc3c2n(c1=O)C(c1ccc(-c2ccc(C(F)(F)F)nc2)cc1)CO3 (centres unmarked) [Example 143, N-[(7-hydroxy-5-oxo-3-{4-[6-(trifluoromethyl)pyridin-3-yl]phenyl}-2,3-dihydro-5H-[1,4]oxazino[2,3,4-ij]quinolin-6-yl)carbonyl]glycine]	0.0047
Cc1ccc(-c2ccc(C3COc4cccc5c(O)c(C(=O)NCC(=O)O)c(=O)n3c45)cc2)cc1 (centres unmarked) [Example 144, N-{[7-hydroxy-3-(4′-methylbiphenyl-4-yl)-5-oxo-2,3-dihydro-5H-[1,4]oxazino[2,3,4-ij]quinolin-6-yl]carbonyl}glycine]	0.01
COc1ccc(-c2ccc(C3COc4cccc5c(O)c(C(=O)NCC(=O)O)c(=O)n3c45)cc2)cc1 (centres unmarked) [Example 145, N-{[7-hydroxy-3-(4′-methoxybiphenyl-4-yl)-5-oxo-2,3-dihydro-5H-[1,4]oxazino[2,3,4-ij]quinolin-6-yl]carbonyl}glycine]	0.0067
N#Cc1ccc(-c2ccc(C3COc4cccc5c(O)c(C(=O)NCC(=O)O)c(=O)n3c45)cc2)cc1 (centres unmarked) [Example 146, N-{[3-(4′-cyanobiphenyl-4-yl)-7-hydroxy-5-oxo-2,3-dihydro-5H-[1,4]oxazino[2,3,4-ij]quinolin-6-yl]carbonyl}glycine]	0.0061
COc1ncccc1-c1ccc(C2COc3cccc4c(O)c(C(=O)NCC(=O)O)c(=O)n2c34)cc1 (centres unmarked) [Example 147, N-({7-hydroxy-3-[4-(2-methoxypyridin-3-yl)phenyl]-5-oxo-2,3-dihydro-5H-[1,4]oxazino[2,3,4-ij]quinolin-6-yl}carbonyl)glycine]	0.018
O=C(O)CNC(=O)c1c(O)c2cccc3c2n(c1=O)C(c1ccc(-c2ccncc2)cc1)CO3 (centres unmarked) [Example 148, N-{[7-hydroxy-5-oxo-3-(4-pyridin-4-ylphenyl)-2,3-dihydro-5H-[1,4]oxazino[2,3,4-ij]quinolin-6-yl]carbonyl}glycine]	0.0057
Nc1ccc(-c2ccc(C3COc4cccc5c(O)c(C(=O)NCC(=O)O)c(=O)n3c45)cc2)cn1 (centres unmarked) [Example 149, N-({3-[4-(6-aminopyridin-3-yl)phenyl]-7-hydroxy-5-oxo-2,3-dihydro-5H-[1,4]oxazino[2,3,4-ij]quinolin-6-yl}carbonyl)glycine]	0.013
N#Cc1cccc(-c2ccc(C3COc4cccc5c(O)c(C(=O)NCC(=O)O)c(=O)n3c45)cc2)c1 (centres unmarked) [Example 150, N-{[3-(3′-cyanobiphenyl-4-yl)-7-hydroxy-5-oxo-2,3-dihydro-5H-[1,4]oxazino[2,3,4-ij]quinolin-6-yl]carbonyl}glycine]	0.013
O=C(O)CNC(=O)c1c(O)c2cccc3c2n(c1=O)C(c1ccc(-c2cccnc2)cc1)CO3 (centres unmarked) [Example 151, N-{[7-hydroxy-5-oxo-3-(4-pyridin-3-ylphenyl)-2,3-dihydro-5H-[1,4]oxazino[2,3,4-ij]quinolin-6-yl]carbonyl}glycine]	0.0092
O=C(O)CNC(=O)c1c(O)c2cccc3c2n(c1=O)C(c1ccc(-c2ccn[nH]2)cc1)CO3 (centres unmarked) [Example 152, 2-(3-(4-(1H-pyrazol-5-yl)phenyl)-7-hydroxy-5-oxo-3,5-dihydro-2H-[1,4]oxazino[2,3,4-ij]quinoline-6-carboxamido)acetic acid]	0.011
COc1ccc(-c2ccc3c(O)c(C(=O)NCC(=O)O)c(=O)n4c3c2OCC4)cn1 [Example 154, N-{[7-hydroxy-10-(6-methoxypyridin-3-yl)-5-oxo-2,3-dihydro-5H-[1,4]oxazino[2,3,4-ij]quinolin-6-yl]carbonyl}glycine]	0.0037
Cc1noc(C)c1-c1ccc2c(O)c(C(=O)NCC(=O)O)c(=O)n3c2c1OCC3 [Example 155, N-{[10-(3,5-dimethylisoxazol-4-yl)-7-hydroxy-5-oxo-2,3-dihydro-5H-[1,4]oxazino[2,3,4-ij]quinolin-6-yl]carbonyl}glycine]	0.0033
Nc1ccc(-c2ccc3c(O)c(C(=O)NCC(=O)O)c(=O)n4c3c2OCC4)cn1 [Example 156, N-{[10-(6-aminopyridin-3-yl)-7-hydroxy-5-oxo-2,3-dihydro-5H-[1,4]oxazino[2,3,4-ij]quinolin-6-yl]carbonyl}glycine]	0.0081
O=C(O)CNC(=O)c1c(O)c2cc(F)cc3c2n(c1=O)C(c1ccc(C(F)(F)F)cc1)CO3 (centres unmarked) [Example 158, 2-(9-fluoro-7-hydroxy-5-oxo-3-(4-(trifluoromethyl)phenyl)-3,5-dihydro-2H-[1,4]oxazino[2,3,4-ij]quinoline-6-carboxamido)acetic acid]	0.016
O=C(O)CNC(=O)c1c(O)c2cc(Br)cc3c2n(c1=O)C(c1ccc(C(F)(F)F)cc1)CO3 (centres unmarked) [Example 159, 2-(9-bromo-7-hydroxy-5-oxo-3-(4-(trifluoromethyl)phenyl)-3,5-dihydro-2H-[1,4]oxazino[2,3,4-ij]quinoline-6-carboxamido)acetic acid]	0.047
O=C(O)CNC(=O)c1c(O)c2ccc(Br)c3c2n(c1=O)C(c1ccc(C(F)(F)F)cc1)CO3 (centres unmarked) [Example 161, 2-(10-bromo-7-hydroxy-5-oxo-3-(4-(trifluoromethyl)phenyl)-3,5-dihydro-2H-[1,4]oxazino[2,3,4-ij]quinoline-6-carboxamido)acetic acid]	0.016
O=C(O)CNC(=O)c1c(O)c2c(F)ccc3c2n(c1=O)C(c1ccc(C(F)(F)F)cc1)CO3 (centres unmarked) [Example 162, 2-(8-fluoro-7-hydroxy-5-oxo-3-(4-(trifluoromethyl)phenyl)-3,5-dihydro-2H-[1,4]oxazino[2,3,4-ij]quinoline-6-carboxamido)acetic acid]	0.015
O=C(O)CNC(=O)c1c(O)c2ccc(F)c3c2n(c1=O)C(c1ccc(C(F)(F)F)cc1)CO3 (centres unmarked) [Example 164, 2-(10-fluoro-7-hydroxy-5-oxo-3-(4-(trifluoroMethyl)phenyl)-3,5-dihydro-2H-[1,4]oxazino[2,3,4-ij]quinoline-6-carboxamido)acetic acid]	0.016
